Several values for one entry are separate records, joined by “and”; a condition that tells them apart may be missing. Equal entries are not always repeated.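 1) Cells in 96-well plates. 2) Compound, 48 h, 5 concentrations. 3) Linear interpolation between surrounding doses. 4) Unreached endpoint = highest concentration. Here, GI50 denotes the concentration required for 50% inhibition of growth. The concentration for full growth arrest is given as TGI.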
Columns and labels:
Test in all cases: NCI-60 cell line screen, 48 h
SK-MEL-2 melanoma = test system: SK-MEL-2 melanoma
MOLT-4 leukemia = test system: MOLT-4 leukemia
HCC-2998 colon = test system: HCC-2998 colon
UACC-62 melanoma = test system: UACC-62 melanoma
COLO 205 colon = test system: COLO 205 colon
HOP-62 NSCLC = test system: HOP-62 NSCLC
SF-295 CNS = test system: SF-295 CNS
SF-268 CNS = test system: SF-268 CNS
HOP-92 NSCLC = test system: HOP-92 NSCLC
ACHN renal = test system: ACHN renal

SMILES	GI50 (SK-MEL-2 melanoma) [µM]	TGI (SK-MEL-2 melanoma) [µM]	GI50 (MOLT-4 leukemia)	TGI (MOLT-4 leukemia)	GI50 (HCC-2998 colon) [µM]	TGI (HCC-2998 colon)	GI50 (UACC-62 melanoma)	TGI (UACC-62 melanoma) [µM]	GI50 (COLO 205 colon) [µM]	TGI (COLO 205 colon)	GI50 (HOP-62 NSCLC) [µM]	TGI (HOP-62 NSCLC)	GI50 (SF-295 CNS)	TGI (SF-295 CNS)	GI50 (SF-268 CNS) [µM]	TGI (SF-268 CNS)	GI50 (HOP-92 NSCLC)	TGI (HOP-92 NSCLC)	TGI (ACHN renal)	GI50 (ACHN renal)
COc1ccc(CNCCCN2C(=O)c3ccc4c5c(ccc(c35)C2=O)C(=O)N(CCCNCCCCNCCCN)C4=O)c(OC)c1OC	1.72	4.11	1.53 µM	15.6 µM	1.67	4.79 µM	1.48 µM	4.37	0.194	0.391 µM	1.4	8.97 µM	2.35 µM	15.9 µM	0.955	13.2 µM	–	–	–	–
COc1cc2c(C#N)n3c(c2cc1OC)C(=O)C(c1ccccc1)Oc1ccccc1-3 (stereo unspecified)	–	–	5.37 µM	> 100 µM	> 100	> 100 µM	–	–	–	–	3.64	> 100 µM	4.1 µM	> 100 µM	3.32	> 100 µM	1.46 µM	5.52 µM	–	–
COc1cc2c(c(OC)c1OC)C(=O)c1c-2n(CCCN)c(=O)c2cc([N+](=O)[O-])ccc12	5.45	11.6	8.08 µM	19.1 µM	0.299	0.804 µM	9.16 µM	24.2	1.22	6.3 µM	0.958	2.6 µM	1.64 µM	3.39 µM	0.364	1.95 µM	–	–	–	–
NC(CCc1nc(-c2ccccc2)cs1)C(=O)O (stereo unspecified)	–	–	–	> 100 µM	–	> 100 µM	–	> 100	–	> 100 µM	–	–	–	> 100 µM	–	–	–	> 100 µM	> 100 µM	–
CCCN(CCC)c1ccc(C=O)c(OC)c1	–	–	11.9 µM	40.4 µM	24.9	> 100 µM	16.3 µM	55.4	22.3	63.4 µM	32	> 100 µM	15.8 µM	64.5 µM	22	> 100 µM	13.3 µM	86.7 µM	> 100 µM	21.4 µM
O=c1c2cc(-c3ccccc3)sc2nc2sc(-c3ccccc3)nn12	–	> 100	–	> 100 µM	–	–	–	> 100	–	> 100 µM	–	> 100 µM	–	> 100 µM	–	> 100 µM	–	> 100 µM	–	–
CCN(CC)CCNc1ccc(CO)c2sc3ccccc3c(=O)c12	–	–	3.14 µM and 3.32 µM	14.1 µM [middle of 4 runs]	–	25.2 µM [middle of 4 runs]	1.94 µM and 11.3 µM	–	–	3 µM and 13.9 µM and 18 µM	–	26 µM [middle of 4 runs]	2.98 µM and 5.31 µM	21.1 µM [middle of 4 runs]	3.62	16.3 µM and 21.2 µM and 20.9 µM	1.91 µM and 5.36 µM	15 µM and 14.9 µM and 17.9 µM	7.94 µM and 24.5 µM and 15.9 µM	2.35 µM and 6.73 µM and 2.58 µM
CC[O+]=c1cccc2ssnc1-2	–	> 100	–	> 100 µM	–	> 100 µM	–	> 100	–	> 100 µM	–	> 100 µM	–	> 100 µM	–	> 100 µM	–	–	> 100 µM	–
COC(=O)/C1=C/C2CC(/C=C(/c3ccccc3)C(=O)O1)C2	–	–	–	62 µM	–	–	–	67.4	–	41.7 µM	–	95 µM	–	> 100 µM	–	–	–	–	96.5 µM	–
O=C(CN1C(=O)c2ccccc2C1=O)OC1C=CCCC1 (stereo unspecified)	–	> 100	–	> 100 µM	–	> 100 µM	–	> 100	–	> 100 µM	–	> 100 µM	–	–	–	> 100 µM	–	–	> 100 µM	–
c1ccc2c(c1)[Se]c1ccccc1[Se]2	–	> 100	–	> 100 µM	–	–	–	> 100	–	> 100 µM	–	> 100 µM	–	73.8 µM	–	> 100 µM	–	76.3 µM	> 100 µM	–
C/C(=C\c1ccccc1)C(O)S(=O)(=O)O (stereo unspecified)	–	> 100	–	> 100 µM	–	> 100 µM	–	> 100	–	> 100 µM	–	> 100 µM	–	> 100 µM	–	> 100 µM	–	–	> 100 µM	–
C=CC1(C)/C(=N\O)C(C)(CC)C(=O)N1O (stereo unspecified)	–	> 100	–	> 100 µM	–	–	–	> 100	–	> 100 µM	–	> 100 µM	–	> 100 µM	–	> 100 µM	–	> 100 µM	> 100 µM	–
COc1cccc(C(=O)O)c1Cc1cccc2ccccc12	–	> 100	–	> 100 µM	–	> 100 µM	–	> 100	–	> 100 µM	–	> 100 µM	–	> 100 µM	–	> 100 µM	–	–	> 100 µM	–
O=C1c2ccccc2C(=O)c2c1c(NCCNCCO)c1cc[nH]c1c2NCCNCCO	–	–	1.28 µM	–	3.18	17.2 µM	1.48 µM	–	2.48	> 33.3 µM	2.6	> 22.2 µM	4.37 µM	43 µM	0.935	5.28 µM	3.06 µM	16.5 µM	> 100 µM	9.96 µM
CCCC(=O)C(CC)/C(CCC(=O)N(Cc1ccccc1)Cc1ccccc1)=N/NC(=O)C[N+](C)(C)C (stereo unspecified)	–	> 100	–	> 100 µM	–	–	–	–	–	> 100 µM	–	> 100 µM	–	> 100 µM	–	> 100 µM	–	> 100 µM	> 100 µM	–
CC(=O)[CH-]C(=O)c1ccccc1.CC(=O)[CH-]C(=O)c1ccccc1.CC(C)CCCC(C)[C@H]1CCC2[C@@H]3CCC4C[C@@H]([O-])CC[C@]4(C)C3CC[C@@]21C.CC(C)CCCC(C)[C@H]1CCC2[C@@H]3CCC4C[C@@H]([O-])CC[C@]4(C)C3CC[C@@]21C.Cl.[Ti+4] (stereo partly specified)	> 25	> 25	> 25 µM	> 25 µM	> 25	> 25 µM	> 25 µM	> 25	> 25	> 25 µM	> 25	> 25 µM	> 25 µM	> 25 µM	> 25	> 25 µM	–	–	> 25 µM	> 25 µM
O=C1c2ccccc2C(=O)N1C/C=N/NS(=O)(=O)c1ccc(Cl)cc1	–	> 100	–	> 100 µM	–	> 100 µM	–	> 100	–	> 100 µM	–	> 100 µM	–	> 100 µM	–	> 100 µM	–	–	> 100 µM	–
